From ChEMBL document CHEMBL1134498, “Experimental and computational screening models for the prediction of intestinal drug absorption” (J Med Chem, 2001)
Where a SMILES comes first, the peptide text is derived from it.

How the values were obtained:
[1] = Cellular permeability (Pc) (Caco-2 cell monolayer); format: ADME; details: human, read-out: Pc
[2] = Apparent permeability coefficient (Papp) (Caco-2 cell monolayer); format: ADME, cell-based; details: human
[3] = species: Homo sapiens; assay: Ratio of [(apical to basal)/(basal to apical)] (Caco-2 cell monolayer); format: ADME

SMILES: CCCc1nn(C)c2c(=O)[nH]c(-c3cc(S(=O)(=O)N4CCN(C)CC4)ccc3OCC)nc12
- Papp [1]: 87 ×10⁻⁶ cm/s
- Papp [2]: 48 ×10⁻⁶ cm/s
- Ratio [3]: 0.83

SMILES: C[C@H](NC(=O)[C@@H](N)Cc1ccc(O)cc1)C(=O)N[C@@H](Cc1ccccc1)C(=O)N[C@@H](Cc1ccccc1)C(N)=O (H-YAFF-NH2)
- Papp [1]: 0.022 ×10⁻⁶ cm/s
- Papp [2]: 0.04 ×10⁻⁶ cm/s

SMILES: NC(=O)[C@H](Cc1ccccc1)NC(=O)[C@H](Cc1ccccc1)NC(=O)[C@H](CCCN=C(N)N)NC(=O)[C@@H](N)Cc1ccc(O)cc1 (H-YRFF-NH2)
- Papp [1]: 0.023 ×10⁻⁶ cm/s
- Papp [2]: 0.037 ×10⁻⁶ cm/s
- Ratio [3]: 0.41

SMILES: C=CCc1ccccc1OCC(O)CNC(C)C (stereo unspecified) [ALPRENOLOL]
- Papp [2]: 88 ×10⁻⁶ cm/s
- Ratio [3]: ~ 1

SMILES: N=C(N)NC(=O)c1nc(Cl)c(N)nc1N [AMILORIDE]
- Papp [1]: 0.78 ×10⁻⁶ cm/s
- Papp [2]: 0.56 ×10⁻⁶ cm/s

SMILES: Cc1cc(=O)n(-c2ccccc2)n1C [ANTIPYRINE]
- Papp [1]: 215 ×10⁻⁶ cm/s
- Papp [2]: 77 ×10⁻⁶ cm/s
- Ratio [3]: 1.1

SMILES: CN/C(=N/CCSCc1nc[nH]c1C)NC#N [CIMETIDINE]
- Papp [1]: 1.2 ×10⁻⁶ cm/s
- Papp [2]: 1.23 ×10⁻⁶ cm/s
- Ratio [3]: 1.8

SMILES: O=C(O)P(=O)(O)O [FOSCARNET]
- Papp [1]: 0.05 ×10⁻⁶ cm/s
- Papp [2]: 0.045 ×10⁻⁶ cm/s
- Ratio [3]: 0.65

SMILES: OC[C@H]1O[C@@H](O[C@@H]2[C@@H](CO)O[C@](O)(CO)[C@H]2O)[C@H](O)[C@@H](O)[C@H]1O [LACTULOSE]
- Papp [1]: 0.27 ×10⁻⁶ cm/s
- Papp [2]: 0.3 ×10⁻⁶ cm/s
- Ratio [3]: 1.4

SMILES: OC[C@@H](O)[C@@H](O)[C@H](O)[C@H](O)CO [MANNITOL]
- Papp [1]: 0.19 ×10⁻⁶ cm/s
- Papp [2]: 0.11 ×10⁻⁶ cm/s
- Ratio [3]: 0.89

SMILES: Cc1ccccc1N1C(=O)c2cc(S(N)(=O)=O)c(Cl)cc2NC1C (stereo unspecified) [METOLAZONE]
- Papp [1]: 6.1 ×10⁻⁶ cm/s
- Papp [2]: 6.2 ×10⁻⁶ cm/s
- Ratio [3]: 0.64

SMILES: COCCc1ccc(OCC(O)CNC(C)C)cc1 (stereo unspecified) [METOPROLOL]
- Papp [2]: 64 ×10⁻⁶ cm/s
- Ratio [3]: 1

SMILES: C=CCOc1ccccc1OCC(O)CNC(C)C (stereo unspecified) [OXPRENOLOL]
- Papp [2]: 61 ×10⁻⁶ cm/s
- Ratio [3]: ~ 1

SMILES: CC(C)NCC(O)COc1cccc2[nH]ccc12 (stereo unspecified) [PINDOLOL]
- Papp [2]: 36 ×10⁻⁶ cm/s
- Ratio [3]: ~ 1

SMILES: CC(=O)Nc1ccc(OCC(O)CNC(C)C)cc1 (stereo unspecified) [PRACTOLOL]
- Papp [2]: 1.8 ×10⁻⁶ cm/s
- Ratio [3]: ~ 1

SMILES: OC[C@H]1O[C@H](OC[C@H]2O[C@H](O[C@]3(CO)O[C@H](CO)[C@@H](O)[C@@H]3O)[C@H](O)[C@@H](O)[C@@H]2O)[C@H](O)[C@@H](O)[C@H]1O [RAFFINOSE]
- Papp [1]: 0.047 ×10⁻⁶ cm/s
- Papp [2]: 0.051 ×10⁻⁶ cm/s
- Ratio [3]: 1.2

SMILES: O=C(O)c1cc(/N=N/c2ccc(S(=O)(=O)Nc3ccccn3)cc2)ccc1O [SULFASALAZINE]
- Papp [1]: 0.16 ×10⁻⁶ cm/s
- Papp [2]: 0.16 ×10⁻⁶ cm/s
- Ratio [3]: 0.087

SMILES: CCN1CCCC1CNC(=O)c1cc(S(N)(=O)=O)ccc1OC (stereo unspecified) [SULPIRIDE]
- Papp [1]: 0.39 ×10⁻⁶ cm/s
- Papp [2]: 0.23 ×10⁻⁶ cm/s
